Assays:
[1] = tested on: VEGF-induced HUVEC growth; assay: VEGF-induced HUVEC growth reaction evaluation system (cell growth inhibitory action test); type: cell-based; conditions: Homo sapiens, 72 h, 20 μg/ml test compound solution added 5 μl per well (100 μl), VEGF solution 400 ng/ml 5 μl per well, three days, absorbance at 450 nm, read-out: Cell growth inhibition rate (%)
Method: Cell growth inhibitory action tests were carried out using a VEGF-induced HUVEC growth reaction evaluation system (HUVEC stands for human umbilical vein endothelial cells), which is one of widely-used methods of evaluating in vitro angiogenesis inhibitory effects of drugs.
As one of widely-used methods of evaluating angiogenesis inhibitory effects of drugs, a cell growth inhibitory action test using a VEGF-induced HUVEC growth reaction evaluation system was reported in Cancer Res., 59, 99-106(1999). According to the method described in the above-mentioned literature, cell growth inhibitory action tests of the present compounds were carried out, their cell growth inhibition rates were calculated, and angiogenesis inhibitory effects of the present compounds were evaluated using the obtained rates as indexes.
Each test compound was dissolved in dimethyl sulfoxide (hereinafter abbreviated as “DMSO”), and the obtained solution was diluted with commercially available phosphoric acid buffer solution (hereinafter abbreviated as “PBS”) to prepare a 20 μg/ml test compound solution.
HUVEC was suspended in a 0.5% fetal bovine serum (hereinafter abbreviated as “FBS”)-containing F12K medium to prepare a 2×10^4 cells/ml HUVEC suspension.
VEGF was dissolved in 0.1% bovine serum albumin-containing PBS, and the obtained solution was diluted with the 0.5% FBS-containing F12K medium to prepare a 400 ng/ml VEGF solution.
• 1) The HUVEC suspension was inoculated in each amount of 100 μl into each well of a 96-well plate coated with I type collagen (2×10^3 cells per well). • 2) One day after inoculation, the test compound solution was added in an amount of 5 μl per well. • 3) One hour after adding the test compound solution, the VEGF solution was added in an amount of 5 μl per well. • 4) Three days after adding the VEGF solution, cell counting kit-8(Dojin Chemical Co., Ltd.) was added in an amount of 10 μl per well. • 5) After three hours, the above-mentioned plate was attached to an absorptiometer (multi label counter ARVO), and absorbance at 450 nm of each well suspension (hereinafter referred to as “test compound suspension”) was measured. • 6) A test was carried out in the same manner as in 1) to 5) except that 1.0% DMSO was used instead of the test compound solution.
Incubation was carried out under conditions of 37° C., 5% carbon dioxide and 95% air in an incubator throughout the above-mentioned test steps.
Cell growth inhibition rates, which are indexes of angiogenesis inhibitory effects, were calculated by the following calculation equation.

B16 cells = assay: Tumor growth inhibitory action test using mouse cancer model (B16 cells); type: in vivo; conditions: po, 240 h; C57BL/6 mouse, B16 cells intradermally, 100 mg/kg/day orally once a day, ten days after injection, average of nine mice; read-out: Tumor tissue weight inhibition rate (%)
Method: Tumor proliferation inhibitory action tests of the present compounds were carried out using a mouse cancer model, which is one of widely-used methods of evaluating in vivo anticancer effects of drugs.
As one of widely-used methods of evaluating anticancer effects of drugs, a tumor growth inhibitory action test using mouse cancer models was reported in Cancer Res., 59, 5209-5218(1999). According to the method described in the above-mentioned literature, tumor growth inhibitory action tests of the present compounds were carried out, their tumor tissue weight inhibition rates were calculated, and anticancer effects of the present compounds were evaluated using the obtained rates as indexes.
A 1% aqueous methyl cellulose solution was added to each test compound to suspend it with a sonicator thereby to prepare a 10 mg/ml test compound suspension.
Physiological saline was added to B16 cells to prepare a 3.3×10^7 cells/ml B16 cell suspension.
Calculation of Tumor Tissue Weight Inhibition Rate
Tumor tissue weight inhibition rates (the average of nine mice per group), which are indexes of anticancer effects were calculated, from the following calculation equation.

[2] = tested on: rat choroidal neovascularization model; assay: Neovascularization incidence test using laser-induced rat choroidal neovascularization model; type: in vivo; conditions: po, 168 h; Brown Norway rat, krypton laser photocoagulation, 30 mg/kg/day orally once a day for seven days, ratio to vehicle administration group, average of three to four individuals and six to eight eyes; read-out: Ratio of neovascularization incidence rate (% of Control)
Method: Neovascularization incidence tests of the present compounds were carried out using a rat choroidal neovascularization model, which is one of widely-used methods of evaluating in vivo choroidal neovascularization inhibitory effects of drugs.
As one of widely-used methods of evaluating choroidal neovascularization inhibitory effects of drugs, a neovascularization incidence test using rat choroidal neovascularization models was reported in Graefe's Arch. Cli. Exp. Ophthalmol., 235, 313-319(1997). According to the method described in the above-mentioned literature, neovascularization incidence tests of the present compounds were carried out, ratios of neovascularization incidence rates of present compounds administration groups were calculated to a neovascularization incidence rate of vehicle administration group (control group), and choroidal neovascularization inhibitory effects of the present compounds were evaluated using the obtained ratios as indexes.
A 1% aqueous methyl cellulose solution was added to each test compound to suspend it thereby to prepare a 6 mg/10 ml test compound suspension.
• 1) A 7:1 mixed solution (1 ml/kg) of a 5% ketamine hydrochloride injection and a 2% xylazine hydrochloride injection was administered intramuscularly to rats (Brown Norway, male, eight weeks old, weight: 200 to 250 g) to anesthetize them systemically. • 2) A tropicamide-phenylephrine hydrochloride ophthalmic solution (trade name: Mydrin-P) was instilled into eyes to cause mydriasis, and then photocoagulation was performed in a Bruch's membrane of each rat using a krypton laser photocoagulation apparatus. The laser irradiation was carried out at eight spots per eye sparsely avoiding thick retinal vessels in a posterior section of ocular fundus and focusing on the retinal deep site. Photocoagulation conditions were adjusted to 100 μm of spot size, […] of output and 0.1 sec. of coagulation time. • 3) After the photocoagulation, the ocular fundus was photographed to confirm photocoagulation (laser irradiation) sites. […] Method of Evaluation • 1) Seven days after the photocoagulation, 0.1 ml of a 10% aqueous fluorescein solution was injected into a tail vein of the rat, and fluorescein fundus photography was performed. • 2) Next, in the fluorescein fundus photography, a spot where fluorescence leak was not observed was judged as negative, and a spot where fluorescence leak was observed was judged as positive. Photocoagulation sites where a little fluorescence leak was observed were judged as positive when two sites are present. • 3) Neovascularization incidence rates were calculated according to the calculation equation 1. Ratios of the neovascularization incidence rates of the test compound administration groups to that of the vehicle administration group were calculated according to the calculation equation 2 from neovascularization incidence rates of respective administration groups.
The values are the average of three to four individuals and six to eight eyes.

Row | SMILES | inhibition at 20 µg/mL (stock) [1] | inhibition in vivo at 100 mg/kg/day (B16 cells) | response vs control in vivo at 30 mg/kg/day [2]
1 | Cc1cc(C)cc(NC(=O)c2cccnc2SCc2ccnc(Br)c2)c1 [1-230, 2-(2-Bromopyridin-4-ylmethylthio)-N-(3,5-dimethylphenyl)pyridine-3-carboxamide] | 100% | 66% | –
2 | CC(C)(C)c1ccc(NC(=O)c2cccnc2SCc2ccncc2)cc1 [1-51, N-(4-tert-Butylphenyl)-2-(4-pyridylmethylthio)pyridine-3-carboxamide] | 98% | 59% | –
3 | O=C(Nc1ccc2cn[nH]c2c1)c1cccnc1SCc1ccncc1 [1-296, N-(Indazol-6-yl)-2-(4-pyridylmethylthio)pyridine-3-carboxamide] | 100% | 71% | 24%
4 | O=C(Nc1ccc2c(c1)CCC2)c1cccnc1SCc1cc[n+]([O-])cc1 [4-8, N-(5-Indanyl)-2-(1-oxopyridin-4-ylmethylthio)pyridine-3-carboxamide] | 98% | 80% | –
5 | O=C(Nc1ccc(OC(F)(F)F)c(Cl)c1)c1cccnc1SCc1cc[n+]([O-])cc1 [4-11, N-(3-Chloro-4-trifluoromethoxyphenyl)-2-(1-oxopyridin-4-ylmethylthio)-pyridine-3-carboxamide] | 100% | 62% | –
6 | Cc1cc(C)cc(NC(=O)c2cccnc2SCc2ccnc(C)c2)c1 [1-307, N-(3,5-Dimethylphenyl)-2-(2-methylpyridin-4-ylmethylthio)pyridine-3-carboxamide] | 100% | – | –
7 | O=C(Nc1ccc(C(F)(F)F)cc1)c1sccc1SCc1ccncc1 [1-255, 3-(4-Pyridylmethylthio)-N-(4-trifluoromethylphenyl)thiophene-2-carboxamide] | 85% | – | –
8 | CSc1cc(CSc2ncccc2C(=O)Nc2ccc(Cl)cc2)ccn1 [1-232, N-(4-Chlorophenyl)-2-(2-methylthiopyridin-4-ylmethylthio)pyridine-3-carboxamide] | 75% | – | –
9 | O=C(Nc1ccc(Cl)c(C(F)(F)F)c1)c1cccnc1SCc1ccncc1 [1-74, N-(4-Chloro-3-trifluoromethylphenyl)-2-(4-pyridylmethylthio)pyridine-3-carboxamide] | 100% | – | –
10 | CC(C)c1cccc(NC(=O)c2ccccc2SCc2ccncc2)c1 [1-92, N-(3-Isopropylphenyl)-2-(4-pyridylmethylthio)benzamide] | 100% | – | –
11 | O=C(Nc1cc(Cl)cc(Cl)c1)c1cccnc1SCc1ccncc1 [1-84, N-(3,5-Dichlorophenyl)-2-(4-pyridylmethylthio)pyridine-3-carboxamide] | 100% | – | –
12 | Cc1cc(NC(=O)c2ccccc2SCc2ccncc2)ccc1Cl [1-99, N-(4-Chloro-3-methylphenyl)-2-(4-pyridylmethylthio)benzamide] | 100% | 64% | –
13 | CC(C)(C)c1ccc(NC(=O)c2cccnc2SCc2cc[n+]([O-])cc2)cc1 [4-10, N-(4-tert-Butylphenyl)-2-(1-oxopyridin-4-ylmethylthio)pyridine-3-carboxamide] | 100% | – | –
14 | COc1cc(CSc2ncccc2C(=O)Nc2cc(C)cc(C)c2)ccn1 [1-300, N-(3,5-Dimethylphenyl)-2-(2-methoxypyridin-4-ylmethylthio)pyridine-3-carboxamide] | 100% | – | –
15 | CCCCc1ccc(NC(=O)c2cccnc2SCc2ccncc2)cc1 [1-50, N-(4-n-Butylphenyl)-2-(4-pyridylmethylthio)pyridine-3-carboxamide] | 94% | – | –
16 | O=C(Nc1ccc2c(c1)CCC2)c1cccnc1SCc1ccnc(F)c1 [1-215, 2-(2-Fluoropyridin-4-ylmethylthio)-N-(5-indanyl)pyridine-3-carboxamide] | 100% | – | –
17 | Cc1cc(C)cc(NC(=O)c2cccnc2SCc2ccncc2Cl)c1 [1-228, 2-(3-Chloropyridin-4-ylmethylthio)-N-(3,5-dimethylphenyl)pyridine-3-carboxamide] | 100% | – | –
18 | O=C(Nc1ccc2c(c1)CCC2)c1cccnc1SCc1ccnc(Cl)c1 [1-216, 2-(2-Chloropyridin-4-ylmethylthio)-N-(5-indanyl)pyridine-3-carboxamide] | 100% | – | –
19 | O=C(Nc1ccc(OC(F)(F)F)cc1)c1cccnc1SCc1cc[n+]([O-])cc1 [4-9, 2-(1-Oxopyridin-4-ylmethylthio)-N-(4-trifluoromethoxyphenyl)pyridine-3-carboxamide] | 100% | 77% | –
20 | O=C(Nc1ccc2c(c1)CCC2)c1ccsc1SCc1ccncc1 [1-287, N-(5-Indanyl)-2-(4-pyridylmethylthio)thiophene-3-carboxamide] | 95% | – | –
21 | CCCc1ccc(NC(=O)c2sccc2SCc2ccncc2)cc1 [1-270, N-(4-n-Propylphenyl)-3-(4-pyridylmethylthio)thiophene-2-carboxamide] | 99% | – | –
22 | CN(C)c1ccc(NC(=O)c2ccccc2SCc2ccncc2)cc1 [1-91, N-(4-Dimethylaminophenyl)-2-(4-pyridylmethylthio)benzamide] | 100% | – | –
23 | Cc1ccc(NC(=O)c2sccc2SCc2ccncc2)cc1C [1-253, N-(3,4-Dimethylphenyl)-3-(4-pyridylmethylthio)thiophene-2-carboxamide] | 100% | – | –
24 | CNC(=O)c1cc(CSc2ncccc2C(=O)Nc2cc(C)cc(C)c2)ccn1 [7-3, N-(3,5-Dimethylphenyl)-2-(2-methylaminocarbonylpyridin-4-ylmethylthio)pyridine-3-carboxamide] | 100% | – | –
25 | Cc1cc(NC(=O)c2cccnc2SCc2ccncc2)ccc1Cl [1-79, N-(4-Chloro-3-methylphenyl)-2-(4-pyridylmethylthio)pyridine-3-carboxamide] | 100% | – | –
